Measured values reported in patent publication US20240287076A1, “COMPOUNDS FOR TARGETING DEGRADATION OF BRUTON'S TYROSINE KINASE” (BIOGEN MA INC., priority 2021, published 2024).

biological target: T1, BTK (Homo sapiens, UniProt Q06187); assay: BTK degradation assay using the HiBiT Method (Nano-Glo HiBiT Lytic Assay, GM01501.3 cells); assay type: cell-based; details: HiBiT Degradation on GM01501.3 BTK @ 6 hours
T1 construct: The GM01501.3 cell line endogenously expresses BTK with a HiBiT fusion tag via CRISPR knock-in at its C-terminal region; endogenous in cells; host or cells: GM01501.3 (GM01501 cells engineered by CRISPR knock-in of HiBiT at the BTK locus)
Protocol: Selected compounds were tested in a BTK degradation assay using the HiBiT Method. Park Memorial Institute (RPM1) 1640 Medium with phenol red, L-Glutamine, Sodium Pyruvate, and fetal bovine serum (FBS) were purchased from Gibco (Grand Island, NY, USA). Nano-Glo® HiBiT Lytic Assay System was purchased from Promega (Madison, WI, USA). GM01501 cells were obtained from the NIGMS Human Genetic Cell Repository at the Coriell Institute for Medical Research. The GM01501.3 cell line endogenously expresses BTK with a HiBiT fusion tag via CRISPR knock-in at its C-terminal region. It was engineered by electroporation with the Neon Transfection System (Themo Fisher Scientific), according to manufacturer indications. Electroporation conditions: 1 pulse of 1,350 V for 30 ms for 0.5×10_6 cells. Cell culture flasks and 384-well microplates were acquired from VWR (Radnor, PA, USA). BTK degradation was evaluated by quantification of luminescent signal using Nano-Glo® HiBiT Lytic Assay kit. Test compounds were added to the 384-well plate from a top concentration of 10 μM with 11 points, half log titration in duplicates. GM01501.3 cells were added into 384-well plates at a cell density of 10,000 cells per well in a total volume of 30 μl. The plates were kept at 37° C. with 5% CO2 for 6 hours. Negative control wells included cells treated with DMSO only and positive control wells included only growing media, without Nano-Glo® HiBiT Lytic reagent. After a 6-hour incubation, Nano-Glo® HiBiT Lytic Assay reagent was added to the cells following manufacturer indications. Luminescence was acquired on EnVision™ Multilabel Reader (PerkinElmer, Santa Clara, CA, USA). […] “++++” represents a DC50 value of less than 100 nM. “+++” represents a DC50 value of 100 nM-500 nM. “++” represents a DC50 value of 500 nM-1000 nM. “+” represents a DC50 value of greater than 1000 nM.

T1 sequence (Q06187 whole entry, the tested form may be a part): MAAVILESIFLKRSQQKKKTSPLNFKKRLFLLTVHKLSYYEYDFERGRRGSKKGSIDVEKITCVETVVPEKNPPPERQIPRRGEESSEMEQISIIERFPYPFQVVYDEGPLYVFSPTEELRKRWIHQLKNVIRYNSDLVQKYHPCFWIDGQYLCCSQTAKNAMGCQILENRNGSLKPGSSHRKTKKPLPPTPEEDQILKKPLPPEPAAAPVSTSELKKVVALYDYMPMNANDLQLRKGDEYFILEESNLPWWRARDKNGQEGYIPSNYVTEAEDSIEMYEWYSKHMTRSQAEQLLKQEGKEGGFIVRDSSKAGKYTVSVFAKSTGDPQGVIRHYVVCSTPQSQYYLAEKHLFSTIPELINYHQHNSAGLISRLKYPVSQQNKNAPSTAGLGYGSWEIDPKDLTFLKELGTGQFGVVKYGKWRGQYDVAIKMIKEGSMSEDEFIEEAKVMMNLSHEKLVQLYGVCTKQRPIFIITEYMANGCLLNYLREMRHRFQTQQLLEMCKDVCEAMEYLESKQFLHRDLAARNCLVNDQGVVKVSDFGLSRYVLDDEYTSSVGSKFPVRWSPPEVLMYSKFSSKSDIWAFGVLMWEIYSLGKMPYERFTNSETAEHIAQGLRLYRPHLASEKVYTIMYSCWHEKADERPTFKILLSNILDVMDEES

| DC50 | SMILES |
| --- | --- |
| < 100 nM | Cc1cc(-c2ncnn3cc(-c4ccc(CN5CCC(c6cnc(NC7CCC(=O)NC7=O)cn6)CC5)cc4)cc23)ccc1CNC(=O)c1noc(C(C)(C)C)n1 (centres unmarked) [Example 12, 5-tert-butyl-N-[[4-[6-[4-[[4-[5-[(2,6-dioxo-3-piperidyl)amino]pyrazin-2-yl]-1-piperidyl]methyl]phenyl]pyrrolo[2,1-f][1,2,4]triazin-4-yl]-2-methyl-phenyl]methyl]-1,2,4-oxadiazole-3-carboxamide] |
| < 100 nM | Cc1cc(-c2ncnn3cc(-c4ccc(CN5CCC(c6ccc(NC7CCC(=O)NC7=O)nc6)CC5)cc4)cc23)ccc1CNC(=O)c1noc(C(C)(C)C)n1 (centres unmarked) [Example 13, 5-tert-butyl-N-[[4-[6-[4-[[4-[6-[(2,6-dioxo-3-piperidyl)amino]-3-pyridyl]-1-piperidyl]methyl]phenyl]pyrrolo[2,1-f][1,2,4]triazin-4-yl]-2-methyl-phenyl]methyl]-1,2,4-oxadiazole-3-carboxamide] |
| < 100 nM | Cc1cc(-c2ncnn3cc(-c4ccc(CN5CCC(c6ncc(NC7CCC(=O)NC7=O)cn6)CC5)cc4)cc23)ccc1CNC(=O)c1noc(C(C)(C)C)n1 (centres unmarked) [Example 14, 5-tert-butyl-N-[[4-[6-[4-[[4-[5-[(2,6-dioxo-3-piperidyl)amino]pyrimidin-2-yl]-1-piperidyl]methyl]phenyl]pyrrolo [2,1-f][1,2,4]triazin-4-yl]-2-methyl-phenyl]methyl]-1,2,4-oxadiazole-3-carboxamide] |
| < 100 nM | Cc1cc(-c2ncnn3cc(-c4ccc(CN5CCC(c6ccc(NC7CCC(=O)NC7=O)cc6)CC5)c(Cl)c4)cc23)ccc1CNC(=O)c1noc(C(C)(C)C)n1 (centres unmarked) [Example 15, 5-tert-butyl-N-[[4-[6-[3-chloro-4-[[4-[4-[(2,6-dioxo-3-piperidyl)amino]phenyl]-1-piperidyl]methyl]phenyl]pyrrolo[2,1-f][1,2,4]triazin-4-yl]-2-methyl-phenyl]methyl]-1,2,4-oxadiazole-3-carboxamide] |
| < 100 nM | COc1cc(-c2cc3c(-c4ccc(CNC(=O)c5noc(C(C)(C)C)n5)c(C)c4)ncnn3c2)ccc1CN1CCC(c2ccc(NC3CCC(=O)NC3=O)cc2)CC1 (centres unmarked) [Example 16, 5-tert-butyl-N-[[4-[6-[4-[[4-[4-[(2,6-dioxo-3-piperidyl)amino]phenyl]-1-piperidyl]methyl]-3-methoxy-phenyl]pyrrolo[2,1-f][1,2,4]triazin-4-yl]-2-methyl-phenyl]methyl]-1,2,4-oxadiazole-3-carboxamide] |
| < 100 nM | Cc1cc(-c2ncnn3cc(-c4ccc(CN5CCC(c6ccc(NC7CCC(=O)NC7=O)cc6)CC5)cc4C)cc23)ccc1CNC(=O)c1noc(C(C)(C)C)n1 (centres unmarked) [Example 17, 5-tert-butyl-N-[[4-[6-[4-[[4-[4-[(2,6-dioxo-3-piperidyl)amino]phenyl]-1-piperidyl]methyl]-2-methyl-phenyl]pyrrolo[2,1-f][1,2,4]triazin-4-yl]-2-methyl-phenyl]methyl]-1,2,4-oxadiazole-3-carboxamide] |
| < 100 nM | Cc1cc(-c2ncnn3cc(-c4ccc(CN5CCC(c6ccc(NC7CCC(=O)NC7=O)c(F)c6)CC5)cc4)cc23)ccc1CNC(=O)c1noc(C(C)(C)C)n1 (centres unmarked) [Example 18, 5-tert-butyl-N-[[4-[6-[4-[[4-[4-[(2,6-dioxo-3-piperidyl)amino]-3-fluoro-phenyl]-1-piperidyl]methyl]phenyl]pyrrolo [2,1-f][1,2,4]triazin-4-yl]-2-methyl-phenyl]methyl]-1,2,4-oxadiazole-3-carboxamide] |
| < 100 nM | Cc1cc(-c2ncnn3cc(-c4ccc(CN5CCC(c6ccc(OC7CCC(=O)NC7=O)cc6)CC5)cc4)cc23)ccc1CNC(=O)c1noc(C(C)(C)C)n1 (centres unmarked) [Example 19, 5-tert-butyl-N-[[4-[6-[4-[[4-[4-[(2,6-dioxo-3-piperidyl)oxy]phenyl]-1-piperidyl]methyl]phenyl]pyrrolo[2,1-f][1,2,4]triazin-4-yl]-2-methyl-phenyl]methyl]-1,2,4-oxadiazole-3-carboxamide] |
| < 100 nM | Cc1cc(-c2ncnn3cc(-c4ccc(CN5CCC(c6ccc(NC7CCC(=O)NC7=O)cn6)CC5)cc4)cc23)ccc1CNC(=O)c1noc(C(C)(C)C)n1 (centres unmarked) [Example 20, 5-tert-butyl-N-[[4-[6-[4-[[4-[5-[(2,6-dioxo-3-piperidyl)amino]-2-pyridyl]-1-piperidyl]methyl]phenyl]pyrrolo[2,1-f][1,2,4]triazin-4-yl]-2-methyl-phenyl]methyl]-1,2,4-oxadiazole-3-carboxamide] |
| < 100 nM | COc1cc(CN2CCC(c3ccc(NC4CCC(=O)NC4=O)cc3)CC2)ccc1-c1cc2c(-c3ccc(CNC(=O)c4noc(C(C)(C)C)n4)c(C)c3)ncnn2c1 (centres unmarked) [Example 21, 5-tert-butyl-N-[[4-[6-[4-[[4-[4-[(2,6-dioxo-3-piperidyl)amino]phenyl]-1-piperidyl]methyl]-2-methoxy-phenyl]pyrrolo[2,1-f][1,2,4]triazin-4-yl]-2-methyl-phenyl]methyl]-1,2,4-oxadiazole-3-carboxamide] |
| < 100 nM | COc1cc(CN2CCC(c3ccc(C4CCC(=O)NC4=O)cc3)CC2)ccc1-c1cc2c(-c3ccc(CNC(=O)c4noc(C(C)(C)C)n4)c(C)c3)ncnn2c1 (centres unmarked) [Example 22, 5-tert-butyl-N-[[4-[6-[4-[[4-[4-(2,6-dioxo-3-piperidyl)phenyl]-1-piperidyl]methyl]-2-methoxy-phenyl]pyrrolo[2,1-f][1,2,4]triazin-4-yl]-2-methyl-phenyl]methyl]-1,2,4-oxadiazole-3-carboxamide] |
| < 100 nM | Cc1cc(-c2ncnn3cc(-c4ccc(CN5CCC(c6ccc(NC7CCC(=O)NC7=O)cc6)CC5)c(F)c4)cc23)ccc1CNC(=O)c1noc(C(C)(C)C)n1 (centres unmarked) [Example 23, 5-tert-butyl-N-[[4-[6-[4-[[4-[4-[(2,6-dioxo-3-piperidyl)amino]phenyl]-1-piperidyl]methyl]-3-fluoro-phenyl]pyrrolo[2,1-f][1,2,4]triazin-4-yl]-2-methyl-phenyl]methyl]-1,2,4-oxadiazole-3-carboxamide] |
| < 100 nM | Cc1cc(-c2ncnn3cc(-c4ccc(CN5CCC(c6ccc(NC7CCC(=O)NC7=O)cc6Cl)CC5)cc4)cc23)ccc1CNC(=O)c1noc(C(C)(C)C)n1 (centres unmarked) [Example 24, 5-tert-butyl-N-[[4-[6-[4-[[4-[2-chloro-4-[(2,6-dioxo-3-piperidyl)amino]phenyl]-1-piperidyl]methyl]phenyl]pyrrolo[2,1-f][1,2,4]triazin-4-yl]-2-methyl-phenyl]methyl]-1,2,4-oxadiazole-3-carboxamide] |
| < 100 nM | Cc1cc(-c2ncnn3cc(-c4ccc(CN5CCC(c6ccc(N[C@H]7CCC(=O)NC7=O)cc6F)CC5)cc4)cc23)ccc1CNC(=O)c1noc(C(C)(C)C)n1 [Example 25, (S)-5-(tert-butyl)-N-(4-(6-(4-((4-(4-((2,6-dioxopiperidin-3-yl)amino)-2-fluorophenyl)piperidin-1-yl)methyl)phenyl)pyrrolo[2,1-f][1,2,4]triazin-4-yl)-2-methylbenzyl)-1,2,4-oxadiazole-3-carboxamide] |
| < 100 nM | Cc1cc(-c2ncnn3cc(-c4ccc(CN5CCC(c6ccc(N[C@@H]7CCC(=O)NC7=O)cc6F)CC5)cc4)cc23)ccc1CNC(=O)c1noc(C(C)(C)C)n1 [Example 26, (R)-5-(tert-butyl)-N-(4-(6-(4-((4-(4-((2,6-dioxopiperidin-3-yl)amino)-2-fluorophenyl)piperidin-1-yl)methyl)phenyl)pyrrolo[2,1-f] [1,2,4]triazin-4-yl)-2-methylbenzyl)-1,2,4-oxadiazole-3-carboxamide] |
| < 100 nM | Cc1cc(-c2ncnn3cc(-c4ccc(CN5CCC(c6ccc(NC7CCC(=O)NC7=O)cc6C(F)(F)F)CC5)cc4)cc23)ccc1CNC(=O)c1noc(C(C)(C)C)n1 (centres unmarked) [Example 27, 5-tert-butyl-N-[[4-[6-[4-[[4-[4-[(2,6-dioxo-3-piperidyl)amino]-2-(trifluoromethyl)phenyl]-1-piperidyl]methyl]phenyl]pyrrolo[2,1-f][1,2,4]triazin-4-yl]-2-methyl-phenyl]methyl]-1,2,4-oxadiazole-3-carboxamide] |
| < 100 nM | Cc1cc(-c2ncnn3cc(-c4ccc(CN5CCC(c6ccc7c(N8CCC(=O)NC8=O)nn(C)c7c6)CC5)cc4)cc23)ccc1CNC(=O)c1noc(C(C)(C)C)n1 [Example 28, 5-tert-butyl-N-[[4-[6-[4-[[4-[3-(2,4-dioxohexahydropyrimidin-1-yl)-1-methyl-indazol-6-yl]-1-piperidyl]methyl]phenyl]pyrrolo[2,1-f][1,2,4]triazin-4-yl]-2-methyl-phenyl]methyl]-1,2,4-oxadiazole-3-carboxamide] |
